Measurements: ChEMBL document CHEMBL3046833, “Six new triterpenoid saponins from the leaves of Ilex oblonga and their inhibitory activities against TMV replication” (Chem Pharm Bull (Tokyo), 2007)
Converted amounts (≈) assume the structure as drawn.

Assays:
Tobacco mosaic virus [1] = test: Antiviral activity against Tobacco mosaic virus (TMV) assessed as inhibition of viral replication at 0.2 mg/ml after 48 hr by leaf disk method relative to control; type: functional
Tobacco mosaic virus [2] = test: Antiviral activity against Tobacco mosaic virus (TMV) assessed as inhibition of viral replication at 0.025 mg/ml after 48 hr by leaf disk method relative to control; type: functional
Tobacco mosaic virus [3] = test: Antiviral activity against Tobacco mosaic virus (TMV) assessed as inhibition of viral replication at 0.4 mg/ml after 48 hr by leaf disk method relative to control; type: functional
Tobacco mosaic virus [4] = test: Antiviral activity against Tobacco mosaic virus (TMV) assessed as inhibition of viral replication at 0.1 mg/ml after 48 hr by leaf disk method relative to control; type: functional
Tobacco mosaic virus [5] = test: Antiviral activity against Tobacco mosaic virus (TMV) assessed as inhibition of viral replication at 0.05 mg/ml after 48 hr by leaf disk method relative to control; type: functional
Tobacco mosaic virus [6] = test: Antiviral activity against Tobacco mosaic virus (TMV) assessed as inhibition of viral replication after 48 hr by leaf disk method; type: functional, organism-based

Question: With `CC1=C(C)[C@H]2C3=CC[C@@H]4[C@@]5(C)CC[C@H](O)[C@@](C)(CO)[C@@H]5CC[C@@]4(C)[C@]3(C)CC[C@@]2(C(=O)O[C@@H]2O[C@H](CO)[C@@H](O)[C@H](O)[C@H]2O)CC1` as the molecule, how does the inhibition at 200 µg/mL (Tobacco mosaic virus [1]) read?
Answer: 41.1%

Question: How did the inhibition at 200 µg/mL (Tobacco mosaic virus [1]) turn out when `CC1=C2C3=CC[C@@H]4[C@@]5(C)CC[C@H](O)[C@@](C)(CO)[C@@H]5CC[C@@]4(C)[C@]3(C)CC[C@@]2(C(=O)O[C@@H]2O[C@H](CO)[C@@H](O)[C@H](O)[C@H]2O)CC[C@H]1C` was run?
Answer: 47.3%

Question: How did the inhibition at 200 µg/mL (Tobacco mosaic virus [1]) turn out when `CC1=C2C3=CC[C@@H]4[C@@]5(C)CC[C@H](O[C@@H]6OC[C@@H](O)[C@H](O)[C@H]6O)C(C)(C)[C@@H]5CC[C@@]4(C)[C@]3(C)CC[C@@]2(C(=O)O[C@@H]2O[C@H](CO)[C@@H](O)[C@H](O)[C@H]2O)CC[C@H]1C` was run?
Answer: 33%

Question: How did the inhibition at 200 µg/mL (Tobacco mosaic virus [1]) turn out when `C=C1C2C3=CC[C@@H]4[C@@]5(C)CC[C@H](O)[C@@](C)(CO)[C@@H]5CC[C@@]4(C)[C@]3(C)CC[C@@]2(C(=O)O[C@@H]2O[C@H](CO)[C@@H](O)[C@H](O)[C@H]2O)CC[C@H]1C` (stereo not given in full) was run?
Answer: 29.6%

Question: `CC1=C2C3=CC[C@@H]4[C@@]5(C)CC[C@H](O[C@@H]6OC[C@@H](O)[C@H](O)[C@H]6O)[C@@](C)(CO)[C@@H]5CC[C@@]4(C)[C@]3(C)CC[C@@]2(C(=O)O[C@@H]2O[C@H](CO)[C@@H](O)[C@H](O)[C@H]2O)CC[C@H]1C` [OBLONGANOSIDE C] was tested. Which inhibition at 200 µg/mL (Tobacco mosaic virus [1]) did it give?
Answer: 38.6%

Question: Which inhibition at 200 µg/mL (Tobacco mosaic virus [1]) does the source give for `C=C1C2C3=CC[C@@H]4[C@@]5(C)CC[C@H](O[C@@H]6OC[C@@H](O)[C@H](O)[C@H]6O)C(C)(C)[C@@H]5CC[C@@]4(C)[C@]3(C)CC[C@@]2(C(=O)O[C@@H]2O[C@H](CO)[C@@H](O)[C@H](O)[C@H]2O)CC[C@H]1C` (stereo not given in full) [OBLONGANOSIDE D] here?
Answer: 37.7%

Question: What does the source list for `CC1=C(C)[C@H]2C3=CC[C@@H]4[C@@]5(C)CC[C@@H]6O[C@H](CO)OC[C@@]6(C)[C@@H]5CC[C@@]4(C)[C@]3(C)CC[C@@]2(C(=O)O[C@@H]2O[C@H](CO)[C@@H](O)[C@H](O)[C@H]2O)CC1` [Oblonganoside A]?
Answer: inhibition at 200 µg/mL (Tobacco mosaic virus [1]): 80.3%; inhibition at 25 µg/mL (Tobacco mosaic virus [2]): 10.1%; Imax (Tobacco mosaic virus [3]): 87.3%; inhibition at 100 µg/mL (Tobacco mosaic virus [4]): 61.9%; inhibition at 50 µg/mL (Tobacco mosaic virus [5]): 30.1%; EC50 (Tobacco mosaic virus [6]): 74 µg/mL (≈ 110 µM)

Question: With `CC1=C(C)[C@H]2C3=CC[C@@H]4[C@@]5(C)CC[C@H](O[C@@H]6OC[C@@H](O)[C@H](O)[C@H]6O)C(C)(C)[C@@H]5CC[C@@]4(C)[C@]3(C)CC[C@@]2(C(=O)O[C@@H]2O[C@H](CO)[C@@H](O)[C@H](O)[C@H]2O)CC1` [Oblonganoside B] as the molecule, how does the inhibition at 200 µg/mL (Tobacco mosaic virus [1]) read?
Answer: 56.4%

Question: For `C=C1CC[C@]2(C(=O)O[C@@H]3O[C@H](CO)[C@@H](O)[C@H](O)[C@H]3O)CC[C@]3(C)C(=CC[C@@H]4[C@@]5(C)CC[C@H](O)[C@@](C)(CO)[C@@H]5CC[C@]43C)C2[C@]1(C)O` (stereo not given in full) [Oblonganoside E], which inhibition at 200 µg/mL (Tobacco mosaic virus [1]) is on record?
Answer: 21.5%

Question: Which inhibition at 200 µg/mL (Tobacco mosaic virus [1]) does the source give for `C=C1CC[C@]2(C(=O)O[C@@H]3O[C@H](CO)[C@@H](O)[C@H](O)[C@H]3O)CC[C@]3(C)C(=CC[C@@H]4[C@@]5(C)CC[C@H](O[C@@H]6OC[C@@H](O)[C@H](O)[C@H]6O)C(C)(C)[C@@H]5CC[C@]43C)C2[C@]1(C)O` (stereo not given in full) [Oblonganoside F] here?
Answer: 39.7%
